Drawing on patent US20140213513A1 (Sanofi, priority 2012, published 2014), this text covers EC50 for 5 compounds.

What all share (format): cell-based
Conditions in all cases: Table 7; cAMP formation
For orientation: Changes in cAMP serve as a functional read-out for many G protein-coupled receptors.

The target of assay [1] is T1, human GLP-1 receptor (hGLP-1 R) (Homo sapiens, UniProt P43220).
T1 construct: expressed in transfected cells
Description: cAMP response of HEK-293 cells stably expressing human GLP-1 receptor (HTRF). As for the experimental part: (§1) cAMP content of cells was determined using a kit from Cisbio Corp. (cat. no. 62AM4PEC) based on HTRF (Homogenous Time Resolved Fluorescence). For preparation, cells were split into T175 culture flasks and grown overnight to near confluency in medium (DMEM/10% FBS). Medium was then removed and cells washed with PBS lacking calcium and magnesium, followed by proteinase treatment with accutase (Sigma-Aldrich cat. no. A6964). Detached cells were washed and resuspended in assay buffer (1×HBSS; 20 mM HEPES, 0.1% BSA, 2 mM IBMX) and cellular density determined. They were then diluted to 400000 cells/ml and 25 μl-aliquots dispensed into the wells of 96-well plates. For measurement, 25 μl of test compound in assay buffer was added to the wells, followed by incubation for 30 minutes at room temperature.
On the technique in general: In TR-FRET formats the signal depends on donor and acceptor labels being close together.

The target in assay [2] is T2, human GIP receptor (hGIP R) (Homo sapiens, UniProt P48546).
T2 construct: expressed in transfected cells
T2 sequence (P48546 22-466): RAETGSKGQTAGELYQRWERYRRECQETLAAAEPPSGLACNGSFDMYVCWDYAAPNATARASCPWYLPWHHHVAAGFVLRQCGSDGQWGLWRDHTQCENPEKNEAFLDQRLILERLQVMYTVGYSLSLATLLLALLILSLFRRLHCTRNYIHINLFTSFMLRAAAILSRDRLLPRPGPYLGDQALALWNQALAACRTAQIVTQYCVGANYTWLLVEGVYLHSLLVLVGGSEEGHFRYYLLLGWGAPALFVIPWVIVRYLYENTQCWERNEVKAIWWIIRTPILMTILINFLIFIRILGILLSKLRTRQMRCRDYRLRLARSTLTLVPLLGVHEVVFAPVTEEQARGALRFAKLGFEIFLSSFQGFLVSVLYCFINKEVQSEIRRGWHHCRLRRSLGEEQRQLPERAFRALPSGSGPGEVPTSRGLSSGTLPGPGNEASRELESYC
As to the kind of experiment: cAMP response of HEK-293 cells stably expressing human GIP receptor (HTRF). Here is the method: as §1

Assay [3] addresses T3, human glucagon receptor (hGLUC R) (Homo sapiens, UniProt P47871).
T3 construct: expressed in transfected cells
As to the kind of experiment: cAMP response of HEK-293 cells stably expressing human glucagon receptor (HTRF). As for the experimental part:
as §1

pEC50: −log10 of the molar value. *1 amine or outer side, *2 acyl side, *3 side chain or, on linkers, in order; H or OH if unused. Where a SMILES comes first, the peptide text is derived from it. Side-chain parts run from the residue outwards. [ ]: non-standard residue; d: D form. The star is where a group is joined. γGlu = O=C(O)[C@H](CCC(=O)[*:2])N[*:1]; Palmitoyl = CCCCCCCCCCCCCCCC(=O)*; Aib = CC(C)(N)C(=O)O

T3 sequence (P47871 26-477): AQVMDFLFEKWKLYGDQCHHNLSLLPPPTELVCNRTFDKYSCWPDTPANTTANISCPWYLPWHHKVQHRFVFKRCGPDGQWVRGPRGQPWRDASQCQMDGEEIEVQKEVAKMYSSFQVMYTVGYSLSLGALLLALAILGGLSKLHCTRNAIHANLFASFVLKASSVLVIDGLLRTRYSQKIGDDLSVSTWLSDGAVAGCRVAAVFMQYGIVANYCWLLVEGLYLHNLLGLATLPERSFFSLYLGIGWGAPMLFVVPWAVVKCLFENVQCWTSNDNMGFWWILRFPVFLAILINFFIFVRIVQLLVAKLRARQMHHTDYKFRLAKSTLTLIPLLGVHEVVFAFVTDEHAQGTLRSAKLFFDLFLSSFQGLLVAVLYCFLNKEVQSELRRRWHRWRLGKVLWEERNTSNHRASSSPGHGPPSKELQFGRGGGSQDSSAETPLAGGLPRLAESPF
T1 sequence (P43220 24-463): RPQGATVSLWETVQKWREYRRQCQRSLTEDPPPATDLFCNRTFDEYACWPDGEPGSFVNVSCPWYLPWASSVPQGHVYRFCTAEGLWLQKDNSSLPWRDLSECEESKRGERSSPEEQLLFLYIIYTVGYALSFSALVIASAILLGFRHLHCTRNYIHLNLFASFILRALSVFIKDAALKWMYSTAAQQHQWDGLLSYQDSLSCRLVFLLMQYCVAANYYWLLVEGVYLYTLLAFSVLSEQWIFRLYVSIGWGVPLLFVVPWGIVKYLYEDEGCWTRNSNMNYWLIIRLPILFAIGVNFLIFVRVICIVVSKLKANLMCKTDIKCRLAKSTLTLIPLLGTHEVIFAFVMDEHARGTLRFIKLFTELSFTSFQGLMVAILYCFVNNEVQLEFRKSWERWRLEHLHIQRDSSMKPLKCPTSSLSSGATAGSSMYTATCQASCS

In general, pEC50 refers to the EC50 on a negative log10 scale, so that one unit is a factor of ten. Take `CCCCCCCCCCCCCCCC(=O)NCCCC[C@H](NC(=O)[C@H](CCC(N)=O)NC(=O)[C@@H](NC(=O)[C@H](CO)NC(=O)[C@H](CC(C)C)NC(=O)[C@H](CC(=O)O)NC(=O)[C@H](CO)NC(=O)[C@@H](NC(=O)[C@H](Cc1ccccc1)NC(=O)[C@@H](NC(=O)CNC(=O)[C@H](CCC(N)=O)NC(=O)C(C)(C)NC(=O)[C@@H](N)Cc1ccc(O)cc1)[C@@H](C)O)[C@@H](C)O)[C@@H](C)CC)C(=O)N[C@@H](CCC(=O)O)C(=O)N[C@@H](CCC(N)=O)C(=O)N[C@@H](CCCNC(=N)N)C(=O)N[C@@H](C)C(=O)N[C@@H](C)C(=O)NC(C)(C)C(=O)N[C@@H](CCC(=O)O)C(=O)N[C@@H](Cc1ccccc1)C(=O)N[C@H](C(=O)N[C@@H](CCC(=O)O)C(=O)N[C@@H](Cc1c[nH]c2ccccc12)C(=O)N[C@@H](CC(C)C)C(=O)N[C@@H](CCCCN)C(=O)N[C@@H](CC(N)=O)C(=O)N[C@H](C(=O)NCC(=O)N1CCC[C@H]1C(=O)N[C@@H](CO)C(=O)N[C@@H](CO)C(=O)NCC(=O)N[C@@H](C)C(=O)N1CCC[C@H]1C(=O)N1CCC[C@H]1C(=O)N1CCC[C@H]1C(=O)N[C@@H](CO)C(N)=O)[C@@H](C)O)[C@@H](C)CC` [SEQ ID NO: 21, Y-Aib-Q-G-T-F-T-S-D-L-S-I-Q-K(x53)-E-Q-R-A-A-Aib-E-F-I-E-W-L-K-N-T-G-P-S-S-G-A-P-P-P-S-NH2] (H-Y[Aib]QGTFTSDLSIQK(Palmitoyl)EQRAA[Aib]EFIEWLKNTGPSSGAPPPS-NH2): the results for the negative-log EC50 (pEC50) in assay [1], in assay [2] and in assay [3] were 10.43, 9.72 and 9.17, respectively.

For `CCCCCCCCCCCCCCCC(=O)N[C@@H](CCC(=O)NCCCC[C@H](NC(=O)[C@H](CCC(N)=O)NC(=O)[C@@H](NC(=O)[C@H](CO)NC(=O)[C@H](CC(C)C)NC(=O)[C@H](CC(=O)O)NC(=O)[C@H](CO)NC(=O)[C@@H](NC(=O)[C@H](Cc1ccccc1)NC(=O)[C@@H](NC(=O)CNC(=O)[C@H](CCC(N)=O)NC(=O)C(C)(C)NC(=O)[C@@H](N)Cc1ccc(O)cc1)[C@@H](C)O)[C@@H](C)O)[C@@H](C)CC)C(=O)N[C@@H](CC(=O)O)C(=O)N[C@@H](CO)C(=O)N[C@@H](CCCNC(=N)N)C(=O)N[C@@H](C)C(=O)N[C@H](C(=O)N[C@@H](CCC(N)=O)C(=O)N[C@@H](CC(=O)O)C(=O)N[C@@H](Cc1ccccc1)C(=O)N[C@H](C(=O)N[C@@H](CCC(=O)O)C(=O)N[C@@H](Cc1c[nH]c2ccccc12)C(=O)N[C@@H](CC(C)C)C(=O)N[C@@H](CCCCN)C(=O)N[C@@H](C)C(=O)NCC(=O)NCC(=O)N1CCC[C@H]1C(=O)N[C@@H](CO)C(=O)N[C@@H](CO)C(=O)NCC(=O)N[C@@H](C)C(=O)N1CCC[C@H]1C(=O)N1CCC[C@H]1C(=O)N1CCC[C@H]1C(=O)N[C@@H](CO)C(N)=O)[C@@H](C)CC)C(C)C)C(=O)O` [SEQ ID NO: 50, Y-Aib-Q-G-T-F-T-S-D-L-S-I-Q-K(yE-x53)-DSRAVQDFIEWLKAGGPSSGAPPPS-NH2] (H-Y[Aib]QGTFTSDLSIQK([γGlu-Palmitoyl])DSRAVQDFIEWLKAGGPSSGAPPPS-NH2), the negative-log EC50 (pEC50) in assay [1] is 11.00; in assay [2], 10.32; in assay [3], 8.76.

With `CCCCCCCCCCCCCCCC(=O)N[C@@H](CCC(=O)NCCCC[C@H](NC(=O)[C@H](CCC(N)=O)NC(=O)[C@@H](NC(=O)[C@H](CO)NC(=O)[C@H](CC(C)C)NC(=O)[C@H](CC(=O)O)NC(=O)[C@H](CO)NC(=O)[C@@H](NC(=O)[C@H](Cc1ccccc1)NC(=O)[C@@H](NC(=O)CNC(=O)[C@H](CCC(N)=O)NC(=O)C(C)(C)NC(=O)[C@@H](N)Cc1ccc(O)cc1)[C@@H](C)O)[C@@H](C)O)[C@@H](C)CC)C(=O)N[C@@H](CCC(=O)O)C(=O)N[C@@H](CCCCN)C(=O)N[C@@H](CCCNC(=N)N)C(=O)NC(C)(C)C(=O)N[C@@H](C)C(=O)NC(C)(C)C(=O)N[C@@H](CCC(=O)O)C(=O)N[C@@H](Cc1ccccc1)C(=O)N[C@H](C(=O)N[C@@H](CCC(=O)O)C(=O)N[C@@H](Cc1c[nH]c2ccccc12)C(=O)N[C@@H](CC(C)C)C(=O)N[C@@H](CCCCN)C(=O)N[C@@H](CC(N)=O)C(=O)N[C@H](C(=O)NCC(=O)N1CCC[C@H]1C(=O)N[C@@H](CO)C(=O)N[C@@H](CO)C(=O)NCC(=O)N[C@@H](C)C(=O)N1CCC[C@H]1C(=O)N1CCC[C@H]1C(=O)N1CCC[C@H]1C(=O)N[C@@H](CO)C(N)=O)[C@@H](C)O)[C@@H](C)CC)C(=O)O` [SEQ ID NO: 11, Y-Aib-Q-G-T-F-T-S-D-L-S-I-Q-K(yE-x53)-E-K-R-Aib-A-Aib-E-F-I-E-W-L-K-N-T-G-P-S-S-G-A-P-P-P-S-NH2] (H-Y[Aib]QGTFTSDLSIQK([γGlu-Palmitoyl])EKR[Aib]A[Aib]EFIEWLKNTGPSSGAPPPS-NH2), the pEC50 in assay [1] is 11.42; in assay [2], 10.84; in assay [3], 10.17.

In the case of `CCCCCCCCCCCCCCCC(=O)N[C@@H](CCC(=O)NCCCC[C@H](NC(=O)[C@H](CCC(N)=O)NC(=O)[C@@H](NC(=O)[C@H](CO)NC(=O)[C@H](CC(C)C)NC(=O)[C@H](CC(=O)O)NC(=O)[C@H](CO)NC(=O)[C@@H](NC(=O)[C@H](Cc1ccccc1)NC(=O)[C@@H](NC(=O)CNC(=O)[C@H](CCC(N)=O)NC(=O)C(C)(C)NC(=O)[C@@H](N)Cc1ccc(O)cc1)[C@@H](C)O)[C@@H](C)O)[C@@H](C)CC)C(=O)N[C@@H](CC(=O)O)C(=O)N[C@@H](CO)C(=O)N[C@@H](CCCNC(=N)N)C(=O)N[C@@H](C)C(=O)N[C@@H](CCC(N)=O)C(=O)N[C@@H](CCC(N)=O)C(=O)N[C@@H](CC(=O)O)C(=O)N[C@@H](Cc1ccccc1)C(=O)N[C@H](C(=O)N[C@@H](CCC(=O)O)C(=O)N[C@@H](Cc1c[nH]c2ccccc12)C(=O)N[C@@H](CC(C)C)C(=O)N[C@@H](CCCCN)C(=O)N[C@@H](C)C(=O)NCC(=O)NCC(=O)N1CCC[C@H]1C(=O)N[C@@H](CO)C(=O)N[C@@H](CO)C(=O)NCC(=O)N[C@@H](C)C(=O)N1CCC[C@H]1C(=O)N1CCC[C@H]1C(=O)N1CCC[C@H]1C(=O)N[C@@H](CO)C(N)=O)[C@@H](C)CC)C(=O)O` [SEQ ID NO: 51, Y-Aib-Q-G-T-F-T-S-D-L-S-I-Q-K(yE-x53)-DSRAQQDFIEWLKAGGPSSGAPPPS-NH2] (H-Y[Aib]QGTFTSDLSIQK([γGlu-Palmitoyl])DSRAQQDFIEWLKAGGPSSGAPPPS-NH2), the negative-log EC50 (pEC50) in assay [1] is 11.38; in assay [2], 11.20; in assay [3], 9.24.

For `CCCCCCCCCCCCCCCC(=O)NCCCC[C@H](NC(=O)[C@H](CCC(N)=O)NC(=O)[C@@H](NC(=O)[C@H](CO)NC(=O)[C@H](CC(C)C)NC(=O)[C@H](CC(=O)O)NC(=O)[C@H](CO)NC(=O)[C@@H](NC(=O)[C@H](Cc1ccccc1)NC(=O)[C@@H](NC(=O)CNC(=O)[C@H](CCC(N)=O)NC(=O)C(C)(C)NC(=O)[C@@H](N)Cc1ccc(O)cc1)[C@@H](C)O)[C@@H](C)O)[C@@H](C)CC)C(=O)N[C@@H](CCC(=O)O)C(=O)N[C@@H](CCCCN)C(=O)N[C@@H](CCCNC(=N)N)C(=O)N[C@@H](C)C(=O)N[C@H](C(=O)NC(C)(C)C(=O)N[C@@H](CC(C)C)C(=O)N[C@@H](Cc1ccccc1)C(=O)N[C@H](C(=O)N[C@@H](CCC(=O)O)C(=O)N[C@@H](Cc1c[nH]c2ccccc12)C(=O)N[C@@H](CC(C)C)C(=O)N[C@@H](CCCCN)C(=O)N[C@@H](C)C(=O)NCC(=O)NCC(=O)N1CCC[C@H]1C(=O)N[C@@H](CO)C(=O)N[C@@H](CO)C(=O)NCC(=O)N[C@@H](C)C(=O)N1CCC[C@H]1C(=O)N1CCC[C@H]1C(=O)N1CCC[C@H]1C(=O)N[C@@H](CO)C(N)=O)[C@@H](C)CC)C(C)C` [SEQ ID NO: 25, Y-Aib-Q-G-T-F-T-S-D-L-S-I-Q-K(x53)-E-K-R-A-V-Aib-L-F-I-E-W-L-K-A-G-G-P-S-S-G-A-P-P-P-S-NH2] (H-Y[Aib]QGTFTSDLSIQK(Palmitoyl)EKRAV[Aib]LFIEWLKAGGPSSGAPPPS-NH2), the negative logarithm of the EC50 (pEC50) is 10.43 in assay [1], 9.75 in assay [2] and 8.69 in assay [3].
